In test [1] the test system is SH-SY5Y. Nature of the test: Neuroprotective activity against MPP-induced cytotoxicity in human SH-SY5Y cells assessed as decrease in cell death at 10 umol/L preincubated with compound for 24 hrs followed by MPP addition and measured after 24 hrs by MTT assay. The class given is functional, cell-based. As to conditions: dose 10.0 µmol/L, time 48.0 hrs. In general terms: Formazan colour is commonly taken as a measure of viable cells.

The test system of another test is Salmonella enterica. The test is described as follows: Antibacterial activity against Salmonella enterica ATCC 14028 assessed as reduction in bacterial growth after 24 hrs by CLSI protocol based analysis. The class given is functional.
For the next test, the system named is Escherichia coli. The test is described as follows: Antibacterial activity against Escherichia coli ATCC 25922 assessed as reduction in bacterial growth after 24 hrs by CLSI protocol based analysis. The class given is functional.
In another test the test system is Candida albicans. The test is described as follows: Antifungal activity against Candida albicans ATCC 10231 assessed as reduction in fungal growth incubated for 24 hrs by CLSI protocol based analysis. The class given is functional.
Test [2] deals with SH-SY5Y. Nature of the test: Neuroprotective activity against MPP-induced cytotoxicity in human SH-SY5Y cells assessed as decrease in Bak mRNA expression level at 10 umol/L by RT-qPCR analysis. The class given is functional, cell-based. As to conditions: dose 10.0 µmol/L. (In general: Real-time PCR tracks product formation cycle by cycle.)
Another test concerns Trichophyton rubrum. Nature of the test: Antifungal activity against Trichophyton rubrum NBRC 9185 assessed as inhibition of fungal growth incubated for 96 hrs by CLSI protocol based analysis. The class given is functional.
The next test relates to Enterococcus faecalis. Nature of the test: Antibacterial activity against Enterococcus faecalis ATCC 19433 assessed as reduction in bacterial growth after 24 hrs by CLSI protocol based analysis. The class given is functional.
Test [3] concerns SH-SY5Y. The test is described as follows: Neuroprotective activity against MPP-induced cytotoxicity in human SH-SY5Y cells assessed as increase in Bcl-xL mRNA expression level at 10 umol/L by RT-qPCR analysis. The class given is functional, cell-based. As to conditions: dose 10.0 µmol/L.
Test [4] concerns Staphylococcus aureus. Nature of the test: Antibacterial activity against Staphylococcus aureus ATCC 25923 assessed as reduction in bacterial growth incubated for 24 hrs by CLSI protocol based analysis. The class given is functional.
In test [5] the test system is Staphylococcus aureus. Nature of the test: Antibacterial activity against methicillin-resistant Staphylococcus aureus ATCC 43300 assessed as reduction in bacterial growth incubated for 24 hrs by CLSI protocol based analysis. The class given is functional.
Another test concerns Aspergillus fumigatus. The test is described as follows: Antifungal activity against Aspergillus fumigatus HIC 6094 assessed as inhibition of fungal growth incubated for 48 hrs by CLSI protocol based analysis. The class given is functional.
The test system of test [6] is Mycobacterium tuberculosis. The test is described as follows: Antitubercular activity against wild type Mycobacterium tuberculosis mc2 6230 assessed as bacterial growth inhibition incubated for 5 days by resazurin microtiter assay. The class given is functional. The following applies: mc2 6230, 120 h, time 5 day. In general terms: The colour change of resazurin is a common sign of viable cells or microbes.

The test system of a further test is Enterococcus faecium. The test is described as follows: Antibacterial activity against Enterococcus faecium ATCC 19434 assessed as reduction in bacterial growth after 24 hrs by CLSI protocol based analysis. The class given is functional.
A further test concerns Klebsiella pneumoniae. The test is described as follows: Antibacterial activity against Klebsiella pneumoniae ATCC 10031 assessed as reduction in bacterial growth after 24 hrs by CLSI protocol based analysis. The class given is functional.
For test [7], the system named is Trichophyton mentagrophytes. Nature of the test: Antifungal activity against Trichophyton mentagrophytes IFM 40996 assessed as inhibition of fungal growth incubated for 96 hrs by CLSI protocol based analysis. The class given is functional.

The source made the active and inactive calls.

In general, MIC refers to the smallest concentration in the dilution series that meets the test's criterion for growth inhibition. With `CCC/C=C/C=C/C=C/[C@@H](O)C[C@]1(O)O[C@H](C[C@H](O)[C@@H](O)[C@H](O)[C@H]2OC(=O)[C@@H](C)[C@@H]2O)[C@@H](O)[C@H](O)[C@@H]1O`, the result with SH-SY5Y [1], in the test on SH-SY5Y [2] and in the test with SH-SY5Y [3] was Active. Further, the MIC in the test on Salmonella enterica, in the test with Escherichia coli, in the test on Candida albicans, in the test on Trichophyton rubrum, with Enterococcus faecalis and in the test on Staphylococcus aureus [4] was more than 128 µg/mL each time. In addition, the MIC (with Staphylococcus aureus [5]; in the test with Aspergillus fumigatus; in test [6]; in the test with Enterococcus faecium; in the test on Klebsiella pneumoniae; in test [7]) was more than 128 µg/mL each time.

Values taken from ChEMBL document CHEMBL5344449, “Retinestatin, a Polyol Polyketide from a Termite Nest-Derived Streptomyces sp” (2024).
